Consider 40 compounds from patent publication US20090311217A1, “3-SUBSTITUTED-1H-INDOLE COMPOUNDS, THEIR USE AS MTOR KINASE AND PI3 KINASE INHIBITORS, AND THEIR SYNTHESES” (priority 2008, published 2009).

Molecules are shown by their SMILES.

One test deals with PI3K-alpha (Homo sapiens, UniProt P42336). The test is described as follows: PI3K-alpha fluorescence polarization assay. The following applies: PI3Kα Avg. IC50. In kind it is biochemical. On the technique in general: Polarisation of emitted light reports the rotation of a fluorescent probe.
Sequence of PI3K-alpha (P42336 whole entry, species assumed): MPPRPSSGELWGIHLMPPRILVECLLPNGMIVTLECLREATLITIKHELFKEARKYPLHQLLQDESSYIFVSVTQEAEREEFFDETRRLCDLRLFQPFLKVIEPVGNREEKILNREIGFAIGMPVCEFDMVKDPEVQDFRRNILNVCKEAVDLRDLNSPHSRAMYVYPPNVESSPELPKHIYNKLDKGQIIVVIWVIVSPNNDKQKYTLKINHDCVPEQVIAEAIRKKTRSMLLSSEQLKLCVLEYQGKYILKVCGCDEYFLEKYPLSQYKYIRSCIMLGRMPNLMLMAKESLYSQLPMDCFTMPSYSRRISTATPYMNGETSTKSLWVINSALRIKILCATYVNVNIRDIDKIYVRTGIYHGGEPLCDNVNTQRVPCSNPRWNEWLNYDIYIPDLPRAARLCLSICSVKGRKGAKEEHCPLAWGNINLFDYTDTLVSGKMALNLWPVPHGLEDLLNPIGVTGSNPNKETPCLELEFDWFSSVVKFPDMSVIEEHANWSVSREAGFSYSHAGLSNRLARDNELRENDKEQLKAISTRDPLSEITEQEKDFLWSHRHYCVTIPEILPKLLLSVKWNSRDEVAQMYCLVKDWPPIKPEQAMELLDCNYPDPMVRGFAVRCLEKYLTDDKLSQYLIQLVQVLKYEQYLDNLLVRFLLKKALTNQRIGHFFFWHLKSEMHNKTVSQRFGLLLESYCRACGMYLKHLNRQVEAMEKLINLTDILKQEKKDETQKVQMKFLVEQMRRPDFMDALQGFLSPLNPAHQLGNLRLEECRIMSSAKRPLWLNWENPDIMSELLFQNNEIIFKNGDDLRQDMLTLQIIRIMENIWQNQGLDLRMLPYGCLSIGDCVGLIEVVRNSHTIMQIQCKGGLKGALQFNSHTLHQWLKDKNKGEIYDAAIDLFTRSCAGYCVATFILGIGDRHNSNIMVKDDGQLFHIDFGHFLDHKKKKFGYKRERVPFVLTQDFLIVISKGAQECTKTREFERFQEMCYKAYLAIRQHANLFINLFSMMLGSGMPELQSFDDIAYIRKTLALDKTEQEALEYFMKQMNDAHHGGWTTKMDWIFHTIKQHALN
Sequence of PI3K-alpha (P27986 whole entry partner, species assumed): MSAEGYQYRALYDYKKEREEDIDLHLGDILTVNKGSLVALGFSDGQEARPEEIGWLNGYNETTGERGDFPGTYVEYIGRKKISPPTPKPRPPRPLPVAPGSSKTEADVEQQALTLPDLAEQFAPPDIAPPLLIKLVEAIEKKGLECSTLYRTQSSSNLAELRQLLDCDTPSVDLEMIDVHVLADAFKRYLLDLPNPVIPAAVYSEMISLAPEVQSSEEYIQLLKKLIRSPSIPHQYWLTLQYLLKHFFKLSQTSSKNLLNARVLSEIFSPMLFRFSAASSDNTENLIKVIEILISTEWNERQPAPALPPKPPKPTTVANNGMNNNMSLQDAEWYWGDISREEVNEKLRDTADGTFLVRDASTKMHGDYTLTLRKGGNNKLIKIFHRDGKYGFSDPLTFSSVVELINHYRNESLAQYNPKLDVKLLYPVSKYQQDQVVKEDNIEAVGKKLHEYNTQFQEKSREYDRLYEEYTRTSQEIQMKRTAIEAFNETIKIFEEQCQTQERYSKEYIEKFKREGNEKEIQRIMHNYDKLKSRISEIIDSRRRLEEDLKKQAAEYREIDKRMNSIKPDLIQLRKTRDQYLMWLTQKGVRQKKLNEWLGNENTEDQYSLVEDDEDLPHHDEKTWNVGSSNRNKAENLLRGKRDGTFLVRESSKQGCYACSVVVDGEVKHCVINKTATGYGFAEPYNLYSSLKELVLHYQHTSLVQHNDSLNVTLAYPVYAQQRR
The term IC50 denotes the concentration that inhibits the measured activity by half. `COc1ccc2c(c1)c(/C=C1\Oc3cc(OC(=O)N(C)c4ccccc4)ccc3C1=O)c(C)n2CCN1CCN(C)CC1` [Compound 558, (2Z)-2-({5-methoxy-2-methyl-1-[2-(4-methylpiperazin-1-yl)ethyl]-1H-indol-3-yl}methylene)-3-oxo-2,3-dihydro-1-benzofuran-6-yl methyl(phenyl)carbamate] returned a half-inhibitory concentration (IC50) of over 10 µM.

Staying with this test, now noted: read-out: PI3Kα Avg. IC50.
Turning to `Cc1c(C=C2Oc3cc(O)cc(O)c3C2=O)c2cc(F)ccc2n1C` [Example 235, 2-[(5-fluoro-1,2-dimethyl-1H-indol-3-yl)methylene]-4,6-dihydroxy-1-benzofuran-3(2H)-one], the concentration for half-maximal inhibition (IC50) turned out to be 4.03 µM.
On to `Cc1ccc2c(c1)C(=O)/C(=C/c1c[nH]c3c(C)cccc13)S2` [Example 293, (2Z)-5-methyl-2-[(7-methyl-1H-indol-3-yl)methylene]-1-benzothiophen-3(2H)-one], for which the concentration for half-maximal inhibition (IC50) is over 10 µM.
`Cn1cc(/C=C2\Sc3ccccc3C2=O)c2ccccc21` [Example 278, (2Z)-2-[(1-methyl-1H-indol-3-yl)methylene]-1-benzothiophen-3(2H)-one]: the half-maximal inhibitory concentration (IC50) came to 3.1 µM.
With `O=C1/C(=C/c2c(-c3ccc(F)cc3)[nH]c3ccccc23)Sc2ccc(Cl)cc21` [Example 286, (2Z)-5-chloro-2-{[2-(4-fluorophenyl)-1H-indol-3-yl]methylene}-1-benzothiophen-3(2H)-one], the half-maximal inhibitory concentration (IC50) is over 10 µM.
On the same count and under the same terms, next, `COc1cc(-c2ccncc2)c2c(c1)c(/C=C1\Oc3cc(O)ccc3C1=O)cn2CCCC#N` [Compound 500, 4-{3-[(Z)-(6-hydroxy-3-oxo-1-benzofuran-2(3H)-ylidene)methyl]-5-methoxy-7-pyridin-4-yl-1H-indol-1-yl}butanenitrile]: 0.589 µM; `COc1cccc2c1O/C(=C\c1c[nH]c3ccc(OCc4ccccc4)cc13)C2=O` [Example 43, (2Z)-2-{[5-(benzyloxy)-1H-indol-3-yl]methylene}-7-methoxy-1-benzofuran-3(2H)-one]: over 10 µM; `COc1ccc2[nH]c(-c3ccccc3)c(C=C3Oc4cccc(O)c4C3=O)c2c1` [Example 79, 4-hydroxy-2-[(5-methoxy-2-phenyl-1H-indol-3-yl)methylene]-1-benzofuran-3(2H)-one]: 1.65 µM.
Still for that read-out and setting: next, `Cc1ccc2c(c1)C(=O)/C(=C/c1c(-c3ccc(Cl)cc3)[nH]c3ccccc13)S2` [Example 291, (2Z)-2-{[2-(4-chlorophenyl)-1H-indol-3-yl]methylene}-5-methyl-1-benzothiophen-3(2H)-one]: over 10 µM.
Take `Cc1ccc2c(c1)C(=O)C(=Cc1c(C)[nH]c3ccc([N+](=O)[O-])cc13)S2` [Example 298, 5-methyl-2-[(2-methyl-5-nitro-1H-indol-3-yl)methylene]-1-benzothiophen-3(2H)-one]: the half-maximal inhibitory concentration (IC50) came to 9.19 µM.
For `O=C1/C(=C/c2c[nH]c3ccc(OCc4ccccc4)cc23)Sc2ccc(Cl)cc21` [Example 288, (2Z)-2-{[5-(benzyloxy)-1H-indol-3-yl]methylene}-5-chloro-1-benzothiophen-3(2H)-one], the half-inhibitory concentration (IC50) is over 10 µM.
As for `Cc1ccc2c(/C=C3\Sc4ccccc4C3=O)c[nH]c2c1` [Example 279, (2Z)-2-[(6-methyl-1H-indol-3-yl)methylene]-1-benzothiophen-3(2H)-one], the 50% inhibitory concentration (IC50) was over 10 µM.
For the compound `COc1ccc2c(c1)c(C=C1Oc3c(ccc(O)c3O)C1=O)c(C)n2CCCCN1CCN(C)CC1` [Example 144, 6,7-dihydroxy-2-({5-methoxy-2-methyl-1-[4-(4-methylpiperazin-1-yl)butyl]-1H-indol-3-yl}methylene)-1-benzofuran-3(2H)-one], the half-inhibitory concentration (IC50) was 1.6 µM.
On to `Cc1[nH]c2ccccc2c1/C=C1\Oc2ccccc2C1=O` [Example 21, (2Z)-2-[(2-methyl-1H-indol-3-yl)methylene]-1-benzofuran-3(2H)-one], for which the IC50 was over 10 µM.
The same measure, in the same setting: for `COc1cccc2c1O/C(=C\c1c(C)[nH]c3ccc([N+](=O)[O-])cc13)C2=O` [Example 38, (2Z)-7-methoxy-2-[(2-methyl-5-nitro-1H-indol-3-yl)methylene]-1-benzofuran-3(2H)-one] the value was over 10 µM; for `Cc1ccc2c(/C=C3\Oc4cc(O)ccc4C3=O)c[nH]c2c1` [Example 31, (2Z)-6-hydroxy-2-[(6-methyl-1H-indol-3-yl)methylene]-1-benzofuran-3(2H)-one], 9.6 µM; for `Cc1ccc2c(/C=C3\Oc4ccccc4C3=O)c[nH]c2c1` [Example 22, (2Z)-2-[(6-methyl-1H-indol-3-yl)methylene]-1-benzofuran-3(2H)-one], over 10 µM.
`O=C1/C(=C/c2c[nH]c3ccc(Br)cc23)Oc2ccccc21` [Example 24, (2Z)-2-[(5-bromo-1H-indol-3-yl)methylene]-1-benzofuran-3(2H)-one]: the IC50 was over 10 µM.
`COc1cccc2c1O/C(=C\c1c[nH]c3cc(C)ccc13)C2=O` [Example 40, (2Z)-7-methoxy-2-[(6-methyl-1H-indol-3-yl)methylene]-1-benzofuran-3(2H)-one]: the concentration for half-maximal inhibition (IC50) is over 10 µM.
As for `CN(c1ccccc1)c1cccc2c1c(/C=C1\Oc3cc(O)cc(O)c3C1=O)cn2C` [Compound 542, (2Z)-4,6-dihydroxy-2-({1-methyl-4-[methyl(phenyl)amino]-1H-indol-3-yl}methylene)-1-benzofuran-3(2H)-one], the concentration for half-maximal inhibition (IC50) turned out to be 0.359 µM.
In the case of `O=C1/C(=C/c2c(-c3ccc(Cl)cc3)[nH]c3ccccc23)Sc2ccc(Cl)cc21` [Example 284, (2Z)-5-chloro-2-{[2-(4-chlorophenyl)-1H-indol-3-yl]methylene}-1-benzothiophen-3(2H)-one], the 50% inhibitory concentration (IC50) is over 10 µM.
Same read-out and setting: for `Cn1c(-c2ccccc2)c(C=C2Oc3cc(O)ccc3C2=O)c2ccccc21` [Example 7, 6-hydroxy-2-[(1-methyl-2-phenyl-1H-indol-3-yl)methylene]-1-benzofuran-3(2H)-one] the value was over 10 µM; for `Cc1cccc2c(/C=C3\Oc4ccccc4C3=O)c[nH]c12` [Example 23, (2Z)-2-[(7-methyl-1H-indol-3-yl)methylene]-1-benzofuran-3(2H)-one], over 10 µM.
`O=C1/C(=C/c2c(-c3ccc(F)cc3)[nH]c3ccccc23)Oc2cc(O)ccc21` [Example 28, (2Z)-2-{[2-(4-fluorophenyl)-1H-indol-3-yl]methylene}-6-hydroxy-1-benzofuran-3(2H)-one]: the concentration for half-maximal inhibition (IC50) worked out at 2.43 µM.
Turning to `O=C1/C(=C/c2c(-c3ccc4ccccc4c3)[nH]c3ccccc23)Oc2ccccc21` [Example 18, (2Z)-2-{[2-(2-naphthyl)-1H-indol-3-yl]methylene}-1-benzofuran-3(2H)-one], the IC50 was found to be 2.55 µM.
With `O=C1/C(=C/c2c(-c3ccc(Cl)cc3)[nH]c3ccccc23)Oc2cc(O)ccc21` [Example 26, (2Z)-2-{[2-(4-chlorophenyl)-1H-indol-3-yl]methylene}-6-hydroxy-1-benzofuran-3(2H)-one], the half-inhibitory concentration (IC50) was 3.81 µM.
Consider `Cc1ccc2c(c1)C(=O)/C(=C/c1c[nH]c3ccc(OCc4ccccc4)cc13)S2` [Example 295, (2Z)-2-{[5-(benzyloxy)-1H-indol-3-yl]methylene}-5-methyl-1-benzothiophen-3(2H)-one], for which the IC50 is over 10 µM.
Regarding `O=C1/C(=C/c2c(-c3ccccc3)[nH]c3ccccc23)Sc2ccc(Cl)cc21` [Example 283, (2Z)-5-chloro-2-[(2-phenyl-1H-indol-3-yl)methylene]-1-benzothiophen-3(2H)-one], the concentration for half-maximal inhibition (IC50) is over 10 µM.
The same measure, in the same setting: for `O=C1/C(=C/c2cn(Cc3ccccc3)c3ccccc23)Sc2ccccc21` [Example 282, (2Z)-2-[(1-benzyl-1H-indol-3-yl)methylene]-1-benzothiophen-3(2H)-one] the value was 1.42 µM.
As to `Cc1ccc2c(c1)C(=O)C(=Cc1c(-c3ccc(F)cc3)[nH]c3ccccc13)S2` [Example 297, 2-{[2-(4-fluorophenyl)-1H-indol-3-yl]methylene}-5-methyl-1-benzothiophen-3(2H)-one], the 50% inhibitory concentration (IC50) was over 10 µM.
`Cc1ccc2c(c1)C(=O)/C(=C/c1c[nH]c3ccccc13)S2` [Example 289, (2Z)-2-(1H-indol-3-ylmethylene)-5-methyl-1-benzothiophen-3(2H)-one]: the half-inhibitory concentration (IC50) was found to be 10.7 µM.
On the same count and under the same terms, next, `COc1cccc2c1O/C(=C\c1c(-c3ccc(F)cc3)[nH]c3ccccc13)C2=O` [Example 37, (2Z)-2-{[2-(4-fluorophenyl)-1H-indol-3-yl]methylene}-7-methoxy-1-benzofuran-3(2H)-one]: 2.35 µM; `O=C1/C(=C/c2cn(Cc3ccccc3)c3ccccc23)Oc2cc(O)ccc21` [Example 33, (2Z)-2-[(1-benzyl-1H-indol-3-yl)methylene]-6-hydroxy-1-benzofuran-3(2H)-one]: over 10 µM; `COc1cccc2c1OC(=Cc1c[nH]c3ccccc13)C2=O` [Example 9, 2-(1H-indol-3-ylmethylene)-7-methoxy-1-benzofuran-3(2H)-one]: over 10 µM.
Same read-out and setting: next, `COc1cccc2c1O/C(=C\c1c(C)[nH]c3ccccc13)C2=O` [Example 39, (2Z)-7-methoxy-2-[(2-methyl-1H-indol-3-yl)methylene]-1-benzofuran-3(2H)-one]: over 10 µM; `COc1cccc2c1OC(=Cc1c(-c3ccccc3)n(C)c3ccccc13)C2=O` [Example 11, 7-methoxy-2-[(1-methyl-2-phenyl-1H-indol-3-yl)methylene]-1-benzofuran-3(2H)-one]: over 10 µM; `Cc1[nH]c2ccccc2c1/C=C1\Sc2ccccc2C1=O` [Example 272, (2Z)-2-[(2-methyl-1H-indol-3-yl)methylene]-1-benzothiophen-3(2H)-one]: 1.32 µM.
The same measure, in the same setting: for `COc1cccc2c1O/C(=C\c1c(-c3ccc4ccccc4c3)[nH]c3ccccc13)C2=O` [Example 36, (2Z)-7-methoxy-2-{[2-(2-naphthyl)-1H-indol-3-yl]methylene}-1-benzofuran-3(2H)-one] the value was over 10 µM.
Turning to `O=C1/C(=C/c2c(-c3ccc4ccccc4c3)[nH]c3ccccc23)Sc2ccccc21` [Example 276, (2Z)-2-{[2-(2-naphthyl)-1H-indol-3-yl]methylene}-1-benzothiophen-3(2H)-one], the IC50 is over 10 µM.
For the compound `Cn1c(-c2ccccc2)c(/C=C2\Sc3ccccc3C2=O)c2ccccc21` [Example 275, (2Z)-2-[(1-methyl-2-phenyl-1H-indol-3-yl)methylene]-1-benzothiophen-3(2H)-one], the half-maximal inhibitory concentration (IC50) stood at 2.8 µM.
